Laboratory results as given in ChEMBL document CHEMBL2440100, “Therapeutic potential of the peptide leucine arginine as a new nonplant bowman-birk-like serine protease inhibitor” (J Med Chem, 2013).
Activity calls are given as the source filed them. No cut-off for these calls is given here. Where a SMILES comes first, the peptide text is derived from it. Bridges are numbered along the chain shown (N, C = ends).

Legend:
Mus musculus [1] = species: Mus musculus; test: Antiasthmatic activity in OVA-immunized BALB/c mouse chronic asthma model assessed as reduction of total lung collagen level at 100 nM treated intranasally on days 15, 16, 22, and 23 at 30 mins before OVA challenge measured on day 71 by MSB-staining; format: functional, organism-based
Mus musculus [2] = species: Mus musculus; test: Antiasthmatic activity in OVA-immunized BALB/c mouse chronic asthma model assessed as reduction of IgE level in serum at 100 nM treated intranasally on days 15, 16, 22, and 23 at 30 mins before OVA challenge measured on day 71; format: functional, organism-based
Mus musculus [3] = species: Mus musculus; test: Antiasthmatic activity in OVA-immunized BALB/c mouse chronic asthma model assessed as plasma histamine release at 0.1 uM treated intranasally after 5 mins by immunoassay; format: functional, organism-based
Mus musculus [4] = species: Mus musculus; test: Antiasthmatic activity in OVA-immunized BALB/c mouse chronic asthma model assessed as reduction of decrease in smooth muscle area at 100 nM treated intranasally on days 15, 16, 22, and 23 at 30 mins before OVA challenge measured on day 71 by alpha-SMA-staining; format: functional, organism-based; conditions: Muscle tissue
Mus musculus [5] = species: Mus musculus; test: Antiasthmatic activity in OVA-immunized BALB/c mouse chronic asthma model assessed as reduction of 8-isoprostane level in serum at 10 uM treated intranasally by immunoassay; format: functional, organism-based
Mus musculus [6] = species: Mus musculus; test: Antiasthmatic activity in OVA-immunized BALB/c mouse acute asthma model assessed as reduction of mucus production in PAS-stained lung section at 100 nM treated intranasally on days 15, 16, 22, and 23 at 30 mins before OVA challenge; format: functional, organism-based
Mus musculus [7] = species: Mus musculus; test: Antiasthmatic activity in OVA-immunized BALB/c mouse acute asthma model assessed as reduction of methacholine-induced lung resistance at 100 nM treated intranasally on days 15, 16, 22, and 23 at 30 mins before OVA challenge; format: functional, organism-based
Mus musculus [8] = species: Mus musculus; test: Antiasthmatic activity in OVA-immunized BALB/c mouse chronic asthma model assessed as inhibition of airway remodeling at 100 nM treated intranasally on days 15, 16, 22, and 23 at 30 mins before OVA challenge measured on day 71; format: functional, organism-based
Mus musculus [9] = species: Mus musculus; test: Antiasthmatic activity in OVA-immunized BALB/c mouse acute asthma model assessed as reduction of methacholine-induced airway hyperreactivity at 100 nM treated intranasally on days 15, 16, 22, and 23 at 30 mins before OVA challenge; format: functional, organism-based
Mus musculus [10] = species: Mus musculus; test: Antiasthmatic activity in OVA-immunized BALB/c mouse chronic asthma model assessed as reduction of area of proliferating smooth muscle cell at 100 nM treated intranasally on days 15, 16, 22, and 23 at 30 mins before OVA challenge measured on day 71 by PCNA+-staining; format: functional, organism-based
Splenocyte [11] = test: Antiasthmatic activity in splenocytes isolated from 25 days OVA-immunized BALB/c mouse acute asthma model assessed as reduction of IL-13 and IL-5 production at 100 nM measured after 3 days re-stimulation by ELISA; format: functional, cell-based
Mus musculus [12] = species: Mus musculus; test: Antiasthmatic activity in OVA-immunized BALB/c mouse chronic asthma model assessed as inhibition of tryptase-like protease activity in BAL fluid using tosyl-gly […]-lys-pNA as substrate after 1 hr; format: functional, organism-based
Mus musculus [13] = species: Mus musculus; test: Antiasthmatic activity in OVA-immunized BALB/c mouse acute asthma model assessed as decrease in number of eosinophils in BAL fluid at 100 nM treated intranasally on days 15, 16, 22, and 23 at 30 mins before OVA challenge; format: functional, organism-based
Mus musculus [14] = species: Mus musculus; test: Antiasthmatic activity in OVA-immunized BALB/c mouse chronic asthma model assessed as reduction of mMCP-1 level in serum at 100 nM treated intranasally at 30 mins before OVA challenge measured after 30 mins by ELISA; format: functional, organism-based
[15] = Inhibition of bovine trypsin using benzoyl-L-arginine p-nitroanilide as substrate after 5 to 60 mins; set-up: species or system Bos taurus
Mus musculus [16] = species: Mus musculus; test: Antiasthmatic activity in OVA-immunized BALB/c mouse acute asthma model assessed as reduction of IgE level in serum at 100 nM treated intranasally on days 15, 16, 22, and 23 at 30 mins before OVA challenge; format: functional, organism-based
Mus musculus [17] = species: Mus musculus; test: Antiasthmatic activity in OVA-immunized BALB/c mouse acute asthma model assessed as reduction of IgG2a level in serum at 100 nM treated intranasally on days 15, 16, 22, and 23 at 30 mins before OVA challenge; format: functional, organism-based
Mus musculus [18] = species: Mus musculus; test: Antiasthmatic activity in OVA-immunized BALB/c mouse chronic asthma model assessed as decrease in number of eosinophils in BAL fluid at 100 nM treated intranasally on days 15, 16, 22, and 23 at 30 mins before OVA challenge measured on day 71; format: functional, organism-based
Mus musculus [19] = species: Mus musculus; test: Antiasthmatic activity in OVA-immunized BALB/c mouse chronic asthma model assessed as reduction of methacholine-induced airway hyperreactivity at 100 nM treated intranasally on days 15, 16, 22, and 23 at 30 mins before OVA challenge measured on day 71; format: functional, organism-based
Mus musculus [20] = species: Mus musculus; test: Antiasthmatic activity in OVA-immunized BALB/c mouse chronic asthma model assessed as inhibition of tryptase-like protease activity in BAL fluid using tosyl-gly […]-lys-pNA as substrate at 100 nM after 1 hr relative to control; format: functional
Mus musculus [21] = species: Mus musculus; test: Antiasthmatic activity in OVA-immunized BALB/c mouse acute asthma model assessed as reduction of airway inflammation at 100 nM treated intranasally on days 15, 16, 22, and 23 at 30 mins before OVA challenge by hematoxylin and eosin staining; format: functional, organism-based
Mus musculus [22] = species: Mus musculus; test: Antiasthmatic activity in OVA-immunized BALB/c mouse chronic asthma model assessed as reduction of airway inflammation at 100 nM treated intranasally on days 15, 16, 22, and 23 at 30 mins before OVA challenge by hematoxylin and eosin staining measured on day 71; format: functional, organism-based
Mus musculus [23] = species: Mus musculus; test: Antiasthmatic activity in OVA-immunized BALB/c mouse chronic asthma model assessed as reduction of collagen and old fibrin at 100 nM treated intranasally on days 15, 16, 22, and 23 at 30 mins before OVA challenge measured on day 71 by martius scarlet blue-staining; format: functional, organism-based
Mus musculus [24] = species: Mus musculus; test: Antiasthmatic activity in OVA-immunized BALB/c mouse chronic asthma model assessed as inhibition of airway inflammation at 100 nM treated intranasally on days 15, 16, 22, and 23 at 30 mins before OVA challenge measured on day 71; format: functional, organism-based
Mus musculus [25] = species: Mus musculus; test: Antiasthmatic activity in lymphnode cells isolated from 25 days OVA-immunized BALB/c mouse acute asthma model assessed as reduction of IL-13 and IL-5 production at 100 nM measured after 3 days re-stimulation by ELISA; format: functional, cell-based
Splenocyte [26] = test: Antiasthmatic activity in splenocytes isolated from 25 days OVA-immunized BALB/c mouse acute asthma model assessed as reduction of IFN-gamma production at 100 nM measured after 3 days re-stimulation by ELISA; format: functional, cell-based
Mus musculus [27] = species: Mus musculus; test: Antiasthmatic activity in lymphnode cells isolated from 25 days OVA-immunized BALB/c mouse acute asthma model assessed as reduction of IFN-gamma production at 100 nM measured after 3 days re-stimulation by ELISA; format: functional, cell-based
Mus musculus [28] = species: Mus musculus; test: Antiasthmatic activity in OVA-immunized BALB/c mouse chronic asthma model assessed as plasma histamine release at 10 uM treated intranasally after 5 mins by immunoassay; format: functional, organism-based

Row | inhibition (Mus musculus [12]) | Ki [15] [nM] | SMILES | Activity (Mus musculus [1]) | Activity (Mus musculus [2]) | Activity (Mus musculus [3]) | Activity (Mus musculus [4]) | Activity (Mus musculus [5]) | Activity (Mus musculus [6]) | Activity (Mus musculus [7]) | Activity (Mus musculus [8]) | Activity (Mus musculus [9]) | Activity (Mus musculus [10]) | Activity (Splenocyte [11]) | Activity (Mus musculus [13]) | Activity (Mus musculus [14]) | Activity (Mus musculus [16]) | Activity (Mus musculus [17]) | Activity (Mus musculus [18]) | Activity (Mus musculus [19]) | inhibition (INH) (Mus musculus [20]) [%] | further results
1 | Dose-dependent effect | 8 | CC[C@H](C)[C@@H]1NC(=O)[C@@H]2CCCN2C(=O)[C@@H]2CCCN2C(=O)[C@H]([C@@H](C)CC)NC(=O)[C@H](CO)NC(=O)[C@H](CCCCN)NC(=O)[C@H]([C@@H](C)O)NC(=O)[C@@H]2CSSC[C@H](NC1=O)C(=O)N[C@@H](Cc1ccccc1)C(=O)N1CCC[C@H]1C(=O)N[C@@H](CC(=O)O)C(=O)NCC(=O)N[C@@H](CCCNC(=N)N)C(=O)N2 | Active | Active | inactive | Active | inactive | Active | Active | Active | Active | Active | Active | Active | Active | Active | inactive | Active | Active | 60 | Activity (Mus musculus [21]): Active; Activity (Mus musculus [22]): Active; Activity (Mus musculus [23]): Active; Activity (Mus musculus [24]): Active; Activity (Mus musculus [25]): Active
2 | Dose-dependent effect | 110 | CC(C)C[C@H](N)C(=O)N[C@H](C(=O)N[C@@H](CCCNC(=N)N)C(=O)NCC(=O)N[C@H]1CSSC[C@@H](C(=O)N[C@@H](Cc2ccccc2)C(=O)N[C@H](C(=O)N[C@@H](CCCNC(=N)N)C(=O)O)C(C)C)NC(=O)[C@@H]2CCCN2C(=O)[C@H](CCCCN)NC(=O)[C@@H]2CCCN2C(=O)[C@@H]2CCCN2C(=O)[C@H](Cc2ccc(O)cc2)NC(=O)[C@H](CO)NC(=O)[C@H](CCCCN)NC(=O)[C@H]([C@@H](C)O)NC(=O)[C@H](Cc2c[nH]c3ccccc23)NC1=O)C(C)C (H-LVRGCWTKSYPPKPCFVR-OH; disulfide 5-15) | Active | Active | inactive | Active | Active | Active | Active | Active | Active | Active | Active | Active | Active | Active | inactive | Active | Active | 60 | Activity (Splenocyte [26]): Active; Activity (Mus musculus [27]): inactive; Activity (Mus musculus [21]): Active; Activity (Mus musculus [22]): Active; Activity (Mus musculus [28]): Active; Activity (Mus musculus [23]): Active; Activity (Mus musculus [24]): Active; Activity (Mus musculus [25]): Active
